Measurements as given in the NIST ThermoML archive (doi:10.1021/je500669y).
Numbers after ± are expanded uncertainties.

Experiment: xn = mol fraction of the nth substance listed
Conditions: Gas, isochoric method

## F/C=C/C(F)(F)F [trans-1,3,3,3-tetrafluoropropene] + C
353.15 K, 747.4 kPa, x2 = 0.747
  specific volume: 0.092 ± 0.01 m3/kg
353.17 K, 284.2 kPa, x2 = 0.31
  specific volume: 0.121 ± 0.01 m3/kg
353.22 K, 401.5 kPa, x2 = 0.513
  specific volume: 0.113 ± 0.01 m3/kg
353.23 K, 1167.7 kPa, x2 = 0.261
  specific volume: 0.026 ± 0.01 m3/kg
353.23 K, 1701.4 kPa, x2 = 0.748
  specific volume: 0.041 ± 0.01 m3/kg
353.24 K, 845 kPa, x2 = 0.496
  specific volume: 0.051 ± 0.01 m3/kg
353.34 K, 1759 kPa, x2 = 0.513
  specific volume: 0.024 ± 0.01 m3/kg
363.15 K, 292.6 kPa, x2 = 0.31
  specific volume: 0.121 ± 0.01 m3/kg
363.16 K, 1209.5 kPa, x2 = 0.261
  specific volume: 0.026 ± 0.01 m3/kg
363.19 K, 1820.5 kPa, x2 = 0.513
  specific volume: 0.024 ± 0.01 m3/kg
363.21 K, 770.2 kPa, x2 = 0.747
  specific volume: 0.092 ± 0.01 m3/kg
363.24 K, 413.1 kPa, x2 = 0.513
  specific volume: 0.114 ± 0.01 m3/kg
363.25 K, 871.2 kPa, x2 = 0.496
  specific volume: 0.051 ± 0.01 m3/kg
363.28 K, 1754.1 kPa, x2 = 0.748
  specific volume: 0.041 ± 0.01 m3/kg
373.1 K, 424.6 kPa, x2 = 0.513
  specific volume: 0.114 ± 0.01 m3/kg
373.1 K, 1251.1 kPa, x2 = 0.261
  specific volume: 0.026 ± 0.01 m3/kg
373.11 K, 1881.5 kPa, x2 = 0.513
  specific volume: 0.024 ± 0.01 m3/kg
373.2 K, 301 kPa, x2 = 0.31
  specific volume: 0.121 ± 0.01 m3/kg
373.23 K, 600.7 kPa, x2 = 0.251
  specific volume: 0.056 ± 0.01 m3/kg
373.23 K, 897.8 kPa, x2 = 0.496
  specific volume: 0.051 ± 0.01 m3/kg
373.27 K, 792.6 kPa, x2 = 0.747
  specific volume: 0.092 ± 0.01 m3/kg
373.27 K, 1806.6 kPa, x2 = 0.748
  specific volume: 0.041 ± 0.01 m3/kg
383.17 K, 1940.6 kPa, x2 = 0.513
  specific volume: 0.025 ± 0.01 m3/kg
383.18 K, 1291.3 kPa, x2 = 0.261
  specific volume: 0.026 ± 0.01 m3/kg
383.25 K, 815 kPa, x2 = 0.747
  specific volume: 0.092 ± 0.01 m3/kg
383.28 K, 309.5 kPa, x2 = 0.31
  specific volume: 0.121 ± 0.01 m3/kg
383.3 K, 437 kPa, x2 = 0.513
  specific volume: 0.114 ± 0.01 m3/kg
383.31 K, 1859.5 kPa, x2 = 0.748
  specific volume: 0.041 ± 0.01 m3/kg
383.33 K, 924.1 kPa, x2 = 0.496
  specific volume: 0.051 ± 0.01 m3/kg
393.06 K, 1327 kPa, x2 = 0.261
  specific volume: 0.026 ± 0.01 m3/kg
393.1 K, 2000.7 kPa, x2 = 0.513
  specific volume: 0.025 ± 0.01 m3/kg
393.13 K, 317.8 kPa, x2 = 0.31
  specific volume: 0.121 ± 0.01 m3/kg
393.14 K, 837.2 kPa, x2 = 0.747
  specific volume: 0.092 ± 0.01 m3/kg
393.22 K, 448.6 kPa, x2 = 0.513
  specific volume: 0.114 ± 0.01 m3/kg
393.32 K, 950.3 kPa, x2 = 0.496
  specific volume: 0.051 ± 0.01 m3/kg
393.33 K, 1911.9 kPa, x2 = 0.748
  specific volume: 0.041 ± 0.01 m3/kg
403.03 K, 2059.7 kPa, x2 = 0.513
  specific volume: 0.025 ± 0.01 m3/kg
403.12 K, 1366.9 kPa, x2 = 0.261
  specific volume: 0.026 ± 0.01 m3/kg
403.17 K, 460.3 kPa, x2 = 0.513
  specific volume: 0.114 ± 0.01 m3/kg
403.18 K, 326.4 kPa, x2 = 0.31
  specific volume: 0.121 ± 0.01 m3/kg
403.21 K, 860 kPa, x2 = 0.747
  specific volume: 0.092 ± 0.01 m3/kg
403.26 K, 1963.8 kPa, x2 = 0.748
  specific volume: 0.041 ± 0.01 m3/kg
403.27 K, 976.2 kPa, x2 = 0.496
  specific volume: 0.051 ± 0.01 m3/kg
412.96 K, 2117.2 kPa, x2 = 0.513
  specific volume: 0.025 ± 0.01 m3/kg
413.15 K, 1405.5 kPa, x2 = 0.261
  specific volume: 0.026 ± 0.01 m3/kg
413.18 K, 472 kPa, x2 = 0.513
  specific volume: 0.114 ± 0.01 m3/kg
413.23 K, 881.9 kPa, x2 = 0.747
  specific volume: 0.092 ± 0.01 m3/kg
413.29 K, 2016 kPa, x2 = 0.748
  specific volume: 0.041 ± 0.01 m3/kg
413.3 K, 1002.5 kPa, x2 = 0.496
  specific volume: 0.052 ± 0.01 m3/kg
413.34 K, 334.9 kPa, x2 = 0.31
  specific volume: 0.121 ± 0.01 m3/kg
413.38 K, 671.6 kPa, x2 = 0.251
  specific volume: 0.056 ± 0.01 m3/kg
